One data set has as its system MDA-MB-231 cells. In words: Apoptosis/necrosis assay (Annexin V–propidium iodide, flow cytometry). It counts as cell-based, human. As to conditions: MDA-MB-231, 24 h; C14 and P8 at IC50-24, cisplatin 100 µM, doxorubicin 0.5 µM. The method, then:
(§1) To determine if the C14 and P8 compounds were able to evoke cell death by apoptosis or necrosis, cell lines MCF-10A, MDA-MB-231, and MDA-MB-231RR were treated at IC50-24 for 24 h. Apoptosis and necrosis were determined using the Apoptosis/Necrosis Detection kit (Abcam, Cambridge, UK) according to the manufacturer’s instructions. In brief, approximately 500,000 cells were seeded in 6-well plates (Corning) for 24 h. Then, each cell line was treated with the respective IC50-24 concentrations of C14 and P8. […] Cells were harvested and collected by centrifugation. All the samples were analyzed in triplicate using flow cytometry equipment FACSCalibur instrument (BD Biosciences, San Jose, CA, USA) at […] and 575-nm emission. Data analysis was performed using the FlowJo software (Tree Star Inc., Ashland, OR, USA). All experiments were performed in triplicate.

The subject of the next data set is MDA-MB-231RR cells. Described as above. It counts as cell-based, human. As to conditions: 24 h, C14 and P8 at IC50-24, cisplatin 100 µM, doxorubicin 0.5 µM. The method, then:
as §1

Another data set relates to Ras-GTP in MCF-10A cells. As to the kind of experiment: Ras activation pull-down assay (Raf-RBD). It counts as cell-based, human. The following applies: 3 h pre-treatment (C14, P8 at IC50-48H), EGF 100 ng/ml 10 min. The method, then:
Subsequently, the cells were stimulated with epidermal growth factor (EGF) (100 ng/ml) for 10 minutes. Lysates (1 mg/ml) were exposed to Ras GTP-binding protein (Raf-RBD), following the manufacturer’s instructions. Experiments for each cell type and condition were repeated three times.

For data set [1], the system named is cyclin D1 and GSK3β in MDA-MB-231 cells. As to the kind of experiment: Western blotting of cyclin D1 and GSK3β. It counts as cell-based, human. The following applies: MDA-MB-231, 3 h; for reduction in cyclin D1 expression: C14 and P8 at IC50-24 (Figure 7 legend), cisplatin 100 µM, doxorubicin 0.5 µM; for reduction in GSK3β expression: IC50-24 (Figure 7 legend), densitometry. The method, then: (§2) To determine the effect of the C14 and P8 compounds over the protein effectors of K-Ras4B, AKT, and ERK, immunoblotting assays were conducted with specific antibodies. In brief, MCF-10A, MDA-MB-231, and MDA-MB-231RR cells were plated in 100-mm culture dishes until 80% of confluents. Cell adhesion was allowed for 24 h. […] After pre-treatment, cells were stimulated with 100 ng/ml EGF for 10 minutes to promote AKT and ERK activation. Later, the whole-cell extracts were obtained by the lysis of the cells (Cytoskeleton) in the presence of proteases and phosphatase inhibitors. Subsequently, the protein extracts were incubated at 4°C for 40 minutes to be clarified by centrifugation for 10 minutes at 14,000 rpm, at 4°C. The protein concentration of each extract was determined by using the Precision Red Advanced Protein Assay Reagent (Cytoskeleton) Then, approximately 25 μg of protein extract was electrophoresed in 10% sodium dodecyl sulfate–polyacrylamide gel electrophoresis (SDS-PAGE) and transferred to polyvinylidene fluoride (PVDF) membranes (Millipore, Billerica, MA, USA). Blots were probed using the following primary antibodies: Total ERK (Cell Signaling, Danvers, MA, USA), pERK (Cell Signaling), Total AKT (Cell Signaling), pAKT (Cell Signaling), GSK3β (Cell Signaling), and cyclin D1 (Abcam) at a 1:1,000 dilution. As a control, an anti-GAPDH antibody (GeneTex, Irvine, CA, USA) was employed at a 1:100,000 dilution and γ-Tubulin (Invitrogen) 1:5,000. Densitometric analysis of blots was performed using the software ImageJ version 1.45 (National Institutes of Health, Bethesda, […], USA).

Data set [2] has as its system cyclin D1 and GSK3β in MDA-MB-231RR cells. In words: Western blotting of cyclin D1 and GSK3β. Format: cell-based, human. As to conditions: 3 h; for reduction in cyclin D1: C14 and P8 at IC50-24 (Figure 7 legend), cisplatin 100 µM, doxorubicin 0.5 µM; for reduction in GSK3β expression: IC50-24 (Figure 7 legend), densitometry. The method, then: as §2
(In general: Immunoblotting shows a protein as a band on a membrane.)

Data set [3] in a line: Body weight and survival of xenograft mice under treatment. It counts as in vivo. The protocol:
Female immune-deficient Nu/Nu nude mice at 6–8 weeks of age ([…], Mexico City, Mexico) were maintained in pathogen-free conditions with irradiated chow. […] Body weight and tumor volume were measured every third day. Tumor sizes were calculated using the formula [(length × width2)/2] in mm.

For data set [4], the system named is MDA-MB-231RR xenograft tumors. In words: Immunohistochemistry and digital pathology of xenograft tumors. It counts as in vivo, Nu/Nu nude mice. The following applies: for expression of CD31 (IHC) / mitotic index (H&E staining): MDA-MB-231RR xenograft tumors; for PCNA expression (IHC, digital pathology) / VEGF expression (IHC, digital pathology) / cyclin D1 expression (IHC, digital pathology): MDA-MB-231RR xenograft tumors after treatment; for mitotic index (H&E staining): compared to the control group. The method, then:
To determine the impact of C14 and P8 drugs on tumor inhibition, angiogenic, and cell cycle markers in a xenograft model, immunohistochemical assays and digital pathological analysis were conducted. For tissue preparation, 4-µm-thick tumor sections underwent a series of preparations: i) deparaffinization in xylene, ii) antigen retrieval in a sodium citrate buffer at pH 6, iii) blocking of endogenous peroxidase activity using a 10% hydrogen peroxide solution, and iv) non-specific binding blockade for 1 h. For the antibody incubation, the tumor sections were incubated with primary antibodies: Anti-Cyclin D1 (Abcam), Anti-PCNA (Abcam), Anti-CD31 (Abcam), Anti-VEGF (Abcam) at a 1:500 dilution.
The incubation with primary antibodies occurred at room temperature overnight. Subsequently, secondary antibody incubation was conducted. Then, the sections were incubated with horseradish peroxidase (HRP)-conjugated secondary antibody for 30 minutes. Finally, visualization and staining were performed using a diaminobenzidine (DAB) detection system from Vector Laboratories, Inc. (Burlingame, CA, USA). Counterstaining was performed using hematoxylin.
For the mitotic index evaluation, hematoxylin and eosin (H&E) staining was conducted to calculate the mitotic index. From each H&E-stained tumor tissue, 10 random fields were captured at ×40 magnification, and the number of mitotic figures was counted. The average count was used to calculate the mitotic index using the following formula: Mitotic index = Number of mitoses/10.
For digital pathology analysis, the immunohistochemistry (IHC)-stained sections were digitized using an Aperio ScanScope CS2 from Leica Biosystems (Nussloch, Germany), which generated high-resolution ×20 digital images (0.45 µm/pixel). These images were analyzed using ImageScope (Aperio, San Diego, CA, USA) to quantify marker expression. Then, a quantification algorithm was developed for each tissue to assess total and nuclear protein expression. The ImageScope allowed setting thresholds for color saturation and defining upper and lower limits for intensities of weak, moderate, and strong positive pixels. Lastly, the raw data encompassed the number of positive pixels and the intensity of positive pixels, which were normalized to the number of total pixels counted in µm^2. Data were presented as total density per µm^2.

For the compound `CN(CC(=O)NC1CCOc2ccccc21)Cc1cccc(Cl)c1` (stereo not drawn) [C14, 2-[(3-chlorophenyl)-methyl-methyl-amino]-N-croman-4-yl-acetamide], in the data set on MDA-MB-231 cells, the apoptosis cells result was “up to 18.52%” and the necrosis is on record as 0.56%. Besides, in the data set with MDA-MB-231RR cells, the apoptosis cells result is on record as “up to 21.62%” and the necrosis turned out to be 0.13%. Moreover, the “reduction in Ras-GTP” value in the data set with Ras-GTP in MCF-10A cells is reported as “approximately 40%”. Besides, in data set [1], the “reduction in cyclin D1 expression” value is 20% and the “reduction in GSK3β expression” value was “did not show an effect”. Moreover, in data set [2], the “reduction in cyclin D1” value turned out to be 40% and the “reduction in GSK3β expression” value amounted to 50%. In addition, in data set [3] (mouse, in vivo, ip, 30 mg/kg), the “tolerability (weight loss, overall survival)” value is listed as “well tolerated”. Besides, in data set [4], the “expression of CD31 (IHC)” value is on record as “decreased”; the “PCNA expression (IHC, digital pathology)” value is given as 10 μm^2; the “VEGF expression (IHC, digital pathology)” value was found to be 100 μm^2; the “cyclin D1 expression (IHC, digital pathology)” value came to 8 μm^2. In addition, the “mitotic index (H&E staining)” value in data set [4] was “lower”.

In the data set on MDA-MB-231 cells, `N.N.[Cl][Pt][Cl]` [Cisplatin, cisplatin, reference compound] had an apoptosis cells of 13.71% and a necrosis of 2.14%. For the same compound, in the data set on MDA-MB-231RR cells, the apoptosis cells result is recorded as “up to 19.13%” and the necrosis came to 0.40%. In the data set on Ras-GTP in MCF-10A cells, the “reduction in Ras-GTP” value is given as “did not show an effect”. Further, the “reduction in cyclin D1 expression” value in data set [1] turned out to be 10%. For the same compound, the “reduction in cyclin D1” value in data set [2] is recorded as 20%. The compound also displayed a survival of mice in data set [3] (Nu/Nu mice, cisplatin 6 mg/kg i.p. daily) of at most 6 days. For the same compound, in data set [3] (Nu/Nu mice, cisplatin 6 mg/kg i.p. daily, within the first 5 days of treatment), the weight decrease is on record as over 20%. In addition, in data set [4], the “PCNA expression (IHC, digital pathology)” value came to 22 μm^2; the “VEGF expression (IHC, digital pathology)” value is recorded as 3,000 μm^2; the “cyclin D1 expression (IHC, digital pathology)” value came to 25 μm^2.

As for `O=C(CN1CCN(c2cccc(Cl)c2)CC1)N[C@@H]1CCOc2ccccc21` [P8, 2-[4-(3-chlorophenyl)piperazin-1-yl]-N-[(4R)-chroman-4-yl]acetamide], in the data set with MDA-MB-231 cells, the apoptosis cells amounted to 48.5% and the necrosis was 4.28%. In the data set on MDA-MB-231RR cells, this compound yielded an apoptosis cells of 72% and a necrosis of 1.75%. Besides, in the data set with Ras-GTP in MCF-10A cells, the “reduction in Ras-GTP” value is given as “approximately 40%”. In data set [1], the “reduction in cyclin D1 expression” value is reported as 20% and the “reduction in GSK3β expression” value turned out to be 40%. Further, in data set [2], the “reduction in cyclin D1” value is 18% and the “reduction in GSK3β expression” value was found to be 25%. The “tolerability (weight loss, overall survival)” value in data set [3] (Nu/Nu mice, 30 mg/kg i.p. daily) was “well tolerated”. In data set [4], the “expression of CD31 (IHC)” value is listed as “decreased”; the “PCNA expression (IHC, digital pathology)” value amounted to 18 μm^2; the “VEGF expression (IHC, digital pathology)” value is listed as 3,000 μm^2; the “cyclin D1 expression (IHC, digital pathology)” value came to 20 μm^2. In addition, the “mitotic index (H&E staining)” value in data set [4] was “lower”.

For the origin of these results see PMC10989073, “Antineoplastic effect of compounds C14 and P8 on TNBC and radioresistant TNBC cells by stabilizing the K-Ras4B^G13D/PDE6δ complex” (Frontiers in Oncology, 2024).
